Source: patent EP0256125A1, “MEANS FOR PREVENTING MICROBIOLOGICAL OVERGROWING OF HARD SURFACE” (priority 1985, dated 1987)

Key:
[1] = system: Penicillium charlesii Smith; assay: Fungicidal activity, inhibition of mycelium growth on wort agar; assay type: cell-based
From the text: (§1) Man prüfte die funguzide Aktivität von Zink-bis-(N-vi- nyloxyethyl)dithiocarbamat gegenüber den reinen Pilzkulturen: Gladosporium resinae, Cladosporium cladosporioides, Acremonium corvum, Acremonium charticola, Penicillium charlesii Smith, Walrotiela subiculesa, Geotrichum candidum Link, Oidium, Penicillium crysogenum. Die genannten Pilze wurden von den Oberflächen der Wände und Decken von Bierbrauereien und Werken für die Herstellung von alkoholfreien Getränken ausgeschieden.
(§2) […] In eine der Petri-Schalen wurde Nährboden mit 1 ml Azeton (Kontrolle) gegossen.
(§3) In 18 bis 20 Stunden nach dem Vergießen des Nährbodens in die Petri-Schalen führte man die Inokulation der reinen Pilzkultur durch, die vorher an einem Schräg-Würzeagar während 15 Tage gezüchtet wurden. Die Inkubation führte man bei einer Temperatur von 25 bis 27°C während 5 Tage durch. Danach wurde der Durchmesser der Pilzkolonien gemessen und der Prozentsatz der Hemmung des Wachstums des Myzeliums (S) nach der Abbott -Formel gezählt: [formula] worin dc Durchmesser der Pilzkolonien in Kontrolle ist, de =Durchmesser der Pilzkolonien in einer Schale mit dem Nährboden ist, der Zink-bis-(N-vinyloxyethyl)dithiocarbamat enthält.

Acremonium charticola = assay: as above; assay type: cell-based
From the text: as §1, §2, §3

Geotrichum candidum Link = assay: as above; assay type: cell-based
From the text: as §1, §2, §3

Acremonium corvum = assay: as above; assay type: cell-based
From the text: as §1, §2, §3

Walrotiela subiculesa = assay: as above; assay type: cell-based
From the text: as §1, §2, §3

Cladosporium resinae = assay: as above; assay type: cell-based
From the text: as §1, §2, §3

[2] = system: Cladosporium cladosporioides; assay: as above; assay type: cell-based
From the text: as §1, §2, §3

Penicillium chrysogenum = assay: as above; assay type: cell-based
From the text: as §1, §2, §3

[3] = Storage stability (qualitative); assay type: physicochemical; details: result in words
[4] = Solubility in solvents (qualitative)
p. Escherichiae = assay: Bactericidal activity, growth on agar medium; assay type: cell-based; details: 37°C, 5 Tage
Procedure: (§4) Die bakterizide Aktivität des Kalium N-(vinyloxyethyl)-dithiocarbamats gegenüber den Bakterien, die von der Oberfläche von Wänden und Decken der Produktionsräume von Brauereien und Fabriken zur Herstellunq von alkoholfreien Getränken ausgeschieden wurden und die zu p.p.Bacillus, Micrococcus, Pseudomonas, Escherichiae gehören, wurde geprüft.
(§5) Es wurden wäßrige Lösungen des genannten Stoffes verschiedener Konzentration hergestellt, die so berechnet wurde, daß bei Einführung von 1 ml der Lösung in 25 ml geschmolzenen agarisierten Nährboden (45-50°C) die Konzentration des Stoffes im Nährboden von 0,003 bis 0,5% betrug. In 18 bis 24 Stunden wurde auf die Oberfläche des Nährbodens 0,1 ml der wäßrigen Suspension der eintägigen reinen Bakterienkulturen aufgetragen, die am Fleisch-Pepton-Agar gezüchtet wurden. Die Suspension wurde gleichmäßig verteilt. In Kontrollschalen wurden 0,1 ml Wasser auf der Oberfläche des Närhbodens verteilt.
(§6) Die Inkubation führte man bei einer Temperatur von 37°C während 5 Tage durch.
(§7) Die effektive Wirkung des Stoffes wurde nach dem Auftreten des Bakterienwachstums an der Oberfläche des Nährbodens bewertet.

p.Micrococcus = assay: Bactericidal activity, growth on agar medium; assay type: cell-based; details: 37°C, 5 Tage
Procedure: as §4, §5, §6, §7

p.Pseudomonas = assay: Bactericidal activity, growth on agar medium; assay type: cell-based; details: 37°C, 5 Tage
Procedure: as §4, §5, §6, §7

p.Bacillus = assay: Bactericidal activity, growth on agar medium; assay type: cell-based; details: 37°C, 5 Tage
Procedure: as §4, §5, §6, §7

[5] = system: Schimmelpilzen, die die Bewachsung von Oberflächen hervorrufen; assay: Fungicidal activity, summary over all tested fungi; assay type: cell-based; details: day 5
From the text: as §1
Es wurden Lösungen des Zink-bis-(N-vinyloxyethyl)di- thiocarbamats im Azeton verschiedener Konzentration hergestellt, die so berechnet wurde, daß bei der Einführung vor 1 ml Lösung in 10 ml des geschmolzenen Würzeagars (45-50°C) die Konzentration des genannten Stoffes im Medium von 0,0015 bis 0,012% betrug. In eine der Petri-Schalen wurde Nährboden mit 1 ml Azeton (Kontrolle) gegossen.
as §3

[6] = Konzentration des Stoffes 0,01 %
[7] = Konzentration des Stoffes 0,1 % (0,10)
[8] = Konzentration des Stoffes 0,02 %
[9] = Konzentration des Stoffes 0,05 %
[10] = Konzentration des Stoffes 0,005 %

## Kupfer bis-(N-vinyloxyethyl) dithiocarbamat
[1]; [6]
  Hemmung des Myzeliums am 5. Tag des Wachstums, Penicillium charlesii Smith: 30%
[1]; [7]
  Hemmung des Myzeliums am 5. Tag des Wachstums, Penicillium charlesii Smith: 100%
[1]; [8]
  Hemmung des Myzeliums am 5. Tag des Wachstums, Penicillium charlesii Smith: 80%
[1]; [9]
  Hemmung des Myzeliums am 5. Tag des Wachstums, Penicillium charlesii Smith: 100%
[1]; [10]
  Hemmung des Myzeliums am 5. Tag des Wachstums, Penicillium charlesii Smith: 15%
Acremonium charticola; [6]
  Hemmung des Myzeliums am 5. Tag des Wachstums, Acremonium charticola: 96%
Acremonium charticola; [7]
  Hemmung des Myzeliums am 5. Tag des Wachstums, Acremonium charticola: 100%
Acremonium charticola; [8]
  Hemmung des Myzeliums am 5. Tag des Wachstums, Acremonium charticola: 100%
Acremonium charticola; [9]
  Hemmung des Myzeliums am 5. Tag des Wachstums, Acremonium charticola: 100%
Acremonium charticola; [10]
  Hemmung des Myzeliums am 5. Tag des Wachstums, Acremonium charticola: 70%
Geotrichum candidum Link; [6]
  Hemmung des Myzeliums am 5. Tag des Wachstums, Geotrichum candidum Link: 100%
Geotrichum candidum Link; [7]
  Hemmung des Myzeliums am 5. Tag des Wachstums, Geotrichum candidum Link: 100%
Geotrichum candidum Link; [8]
  Hemmung des Myzeliums am 5. Tag des Wachstums, Geotrichum candidum Link: 100%
Geotrichum candidum Link; [9]
  Hemmung des Myzeliums am 5. Tag des Wachstums, Geotrichum candidum Link: 100%
Geotrichum candidum Link; [10]
  Hemmung des Myzeliums am 5. Tag des Wachstums, Geotrichum candidum Link: 100%
Acremonium corvum; [6]
  Hemmung des Myzeliums am 5. Tag des Wachstums, Acremonium corvum: 100%
Acremonium corvum; [7]
  Hemmung des Myzeliums am 5. Tag des Wachstums, Acremonium corvum: 100%
Acremonium corvum; [8]
  Hemmung des Myzeliums am 5. Tag des Wachstums, Acremonium corvum: 100%
Acremonium corvum; [9]
  Hemmung des Myzeliums am 5. Tag des Wachstums, Acremonium corvum: 100%
Acremonium corvum; [10]
  Hemmung des Myzeliums am 5. Tag des Wachstums, Acremonium corvum: 100%
Walrotiela subiculesa; [6]
  Hemmung des Myzeliums am 5. Tag des Wachstums, Walrotiela subiculesa: 0%
Walrotiela subiculesa; [7]
  Hemmung des Myzeliums am 5. Tag des Wachstums, Walrotiela subiculesa: 100%
Walrotiela subiculesa; [8]
  Hemmung des Myzeliums am 5. Tag des Wachstums, Walrotiela subiculesa: 10%
Walrotiela subiculesa; [9]
  Hemmung des Myzeliums am 5. Tag des Wachstums, Walrotiela subiculesa: 37%
Walrotiela subiculesa; [10]
  Hemmung des Myzeliums am 5. Tag des Wachstums, Walrotiela subiculesa: 0%
Cladosporium resinae; [6]
  Hemmung des Myzeliums am 5. Tag des Wachstums, Cladosporium resinae: 34%
Cladosporium resinae; [7]
  Hemmung des Myzeliums am 5. Tag des Wachstums, Cladosporium resinae: 100%
Cladosporium resinae; [8]
  Hemmung des Myzeliums am 5. Tag des Wachstums, Cladosporium resinae: 80%
Cladosporium resinae; [9]
  Hemmung des Myzeliums am 5. Tag des Wachstums, Cladosporium resinae: 90%
[2]; [6]
  Hemmung des Myzeliums am 5. Tag des Wachstums, Cladosporium cladosporioides: 36%
[2]; [7]
  Hemmung des Myzeliums am 5. Tag des Wachstums, Cladosporium cladosporioides: 100%
[2]; [8]
  Hemmung des Myzeliums am 5. Tag des Wachstums, Cladosporium cladosporioides: 65%
[2]; [9]
  Hemmung des Myzeliums am 5. Tag des Wachstums, Cladosporium cladosporioides: 80%
[2]; [10]
  Hemmung des Myzeliums am 5. Tag des Wachstums, Cladosporium cladosporioides: 15%
Penicillium chrysogenum; [6]
  Hemmung des Myzeliums am 5. Tag des Wachstums, Penicillium chrysogenum: 25%
Penicillium chrysogenum; [7]
  Hemmung des Myzeliums am 5. Tag des Wachstums, Penicillium chrysogenum: 100%
Penicillium chrysogenum; [8]
  Hemmung des Myzeliums am 5. Tag des Wachstums, Penicillium chrysogenum: 36%
Penicillium chrysogenum; [9]
  Hemmung des Myzeliums am 5. Tag des Wachstums, Penicillium chrysogenum: 70%
Penicillium chrysogenum; [10]
  Hemmung des Myzeliums am 5. Tag des Wachstums, Penicillium chrysogenum: 10%
[3]
  Lagerbeständigkeit: lagerbeständig
[4]; Alkohol (Ethylalkohol)
  Löslichkeit im Alkohol: bearenzt löslich
[4]; Azeton
  Löslichkeit im Azeton: bearenzt löslich
[4]; Diethylether
  Löslichkeit im Diethylether: nicht löslich
[4]; Dimethylsulfoxid
  Löslichkeit im Dimethylsulfoxid: gut löslich
[4]; Wasser
  Löslichkeit in Wasser: bearenzt löslich
p. Escherichiae
  Konzentration der Salze der N-(vinyloxyethyl)dithiocarbaminsäure (100%), die das Wachstum der Bakterien am 5. Tag des Wachstums hemmen, p. Escherichiae: 0,15%
p.Micrococcus
  Konzentration der Salze der N-(vinyloxyethyl)dithiocarbaminsäure (100%), die das Wachstum der Bakterien am 5. Tag des Wachstums hemmen, p.Micrococcus: 0,15%
p.Pseudomonas
  Konzentration der Salze der N-(vinyloxyethyl)dithiocarbaminsäure (100%), die das Wachstum der Bakterien am 5. Tag des Wachstums hemmen, p.Pseudomonas: 0,15%
p.Bacillus
  Konzentration der Salze der N-(vinyloxyethyl)dithiocarbaminsäure (100%), die das Wachstum der Bakterien am 5. Tag des Wachstums hemmen, p.Bacillus: 0,15%
[5]
  Konzentration, bei der die Entwicklung aller untersuchten Pilze vollständig gehemmt wurde: 0,1%
